Measured values taken from PubChem BioAssay AID200 (DTP/NCI, 2004).
Several values for one entry are separate records, joined by “and”; a condition that tells them apart may be missing. Equal values may be shown once. Inconclusive results and toxic doses are left out. The calls were made as follows: active = survival T/C of 150% or more; inactive = T/C below 125% in these data. Where a SMILES comes first, the peptide text is derived from it.

System: B6C3F1 mice, B16 melanoma ip, median survival T/C
Assay: NCI In Vivo Anticancer Drug Screen. Data for tumor model B16 Melanoma (intraperitoneal) in B6C3F1 mice
Conditions: endpoint: median survival time, higher = longer survival
Procedure, shortened: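 Tumor-bearing mice received test compound; a separate group got vehicle only. Survival was then compared, with results reported as treated over control.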

[1] = dose: 6.25 mg/kg/injection, schedule: Q01DX009 (ip), vehicle: Klucel (hydroxypropylcellulose) (HPC)
[2] = dose: 12.5 mg/kg/injection, schedule: Q01DX009 (ip), vehicle: Klucel (hydroxypropylcellulose) (HPC)
[3] = dose: 25.0 mg/kg/injection, schedule: Q01DX009 (ip), vehicle: Klucel (hydroxypropylcellulose) (HPC)
[4] = dose: 100.0 mg/kg/injection, schedule: Q01DX009 (ip), vehicle: Klucel (hydroxypropylcellulose) (HPC)
[5] = dose: 200.0 mg/kg/injection, schedule: Q01DX009 (ip), vehicle: Klucel (hydroxypropylcellulose) (HPC)
[6] = dose: 400.0 mg/kg/injection, schedule: Q01DX009 (ip), vehicle: Klucel (hydroxypropylcellulose) (HPC)
[7] = dose: 100.0 mg/kg/injection, schedule: Q01DX009 (ip), vehicle: saline with Tween-80
[8] = dose: 200.0 mg/kg/injection, schedule: Q01DX009 (ip), vehicle: saline with Tween-80
[9] = dose: 400.0 mg/kg/injection, schedule: Q01DX009 (ip), vehicle: saline with Tween-80
[10] = dose: 50.0 mg/kg/injection, schedule: Q01DX009 (ip), vehicle: Klucel (hydroxypropylcellulose) (HPC)

Measured: T/C

O=c1ccc2ccccc2o1
inactive: dose: 7.5 mg/kg/injection, schedule: Q01DX009 (ip), vehicle: saline with Tween-80 116 % of control and 118 % of control | dose: 15.0 mg/kg/injection, schedule: Q01DX009 (ip), vehicle: saline with Tween-80 117 % of control and 120 % of control | dose: 30.0 mg/kg/injection, schedule: Q01DX009 (ip), vehicle: saline with Tween-80 111 % of control and 112 % of control | dose: 60.0 mg/kg/injection, schedule: Q01DX009 (ip), vehicle: saline with Tween-80 120 % of control and 100 % of control | dose: 120.0 mg/kg/injection, schedule: Q01DX009 (ip), vehicle: saline with Tween-80 90 % of control and 96 % of control

NCC(=O)N1CCCC1C(=O)NCC(=O)NCC(=O)O (configuration not stated) (HELM PEPTIDE1{G.[O=C(C1CCCN1[*:1])[*:2]].G.G}$$$$V2.0)
inactive: dose: 50.0 mg/kg/injection, schedule: Q01DX009 (ip), vehicle: saline 92 % of control | dose: 100.0 mg/kg/injection, schedule: Q01DX009 (ip), vehicle: saline 100 % of control | dose: 200.0 mg/kg/injection, schedule: Q01DX009 (ip), vehicle: saline 95 % of control

O=C([O][Bi]([c]1ccccc1)[c]1ccccc1)c1ccccc1
inactive: [1] 101 % of control | [2] 96 % of control | [3] 88 % of control

Ic1ccc2c(c1)N(c1ccccc1)c1cc(N=c3ccc4nc5ccc(I)cc5n(-c5ccccc5)c-4c3)ccc1N2
inactive: [4] 91 % of control | [5] 94 % of control | [6] 91 % of control

CCOC(=O)c1c(C)c(C(=O)OCC)n(C)c1C=O
inactive: [7] 95 % of control | [8] 94 % of control | [9] 92 % of control

Nc1nc(N)c2c(ccc3c2ccn3Cc2cccc([N+](=O)[O-])c2)n1
inactive: dose: 0.19 mg/kg/injection, schedule: Q01DX009 (ip), vehicle: saline with Tween-80 107 % of control | dose: 0.2 mg/kg/injection, schedule: Q01DX009 (ip), vehicle: saline with Tween-80 102 % of control | dose: 0.38 mg/kg/injection, schedule: Q01DX009 (ip), vehicle: saline with Tween-80 98 % of control | dose: 0.4 mg/kg/injection, schedule: Q01DX009 (ip), vehicle: saline with Tween-80 101 % of control | dose: 0.75 mg/kg/injection, schedule: Q01DX009 (ip), vehicle: saline with Tween-80 116 % of control | dose: 0.78 mg/kg/injection, schedule: Q01DX009 (ip), vehicle: saline with Tween-80 103 % of control | dose: 1.5 mg/kg/injection, schedule: Q01DX009 (ip), vehicle: saline with Tween-80 93 % of control and 100 % of control | dose: 1.56 mg/kg/injection, schedule: Q01DX009 (ip), vehicle: saline with Tween-80 99 % of control | dose: 3.0 mg/kg/injection, schedule: Q01DX009 (ip), vehicle: saline with Tween-80 112 % of control and 103 % of control | dose: 6.0 mg/kg/injection, schedule: Q01DX009 (ip), vehicle: saline with Tween-80 108 % of control and 116 % of control

C(C#CCN1CCOCC1)#CCN1CCOCC1
inactive: [2] 102 % of control | dose: 12.5 mg/kg/injection, schedule: Q01DX009 (ip), vehicle: saline with Tween-80 105 % of control | [3] 110 % of control | dose: 25.0 mg/kg/injection, schedule: Q01DX009 (ip), vehicle: saline with Tween-80 106 % of control | [10] 105 % of control | dose: 50.0 mg/kg/injection, schedule: Q01DX009 (ip), vehicle: saline with Tween-80 106 % of control | [4] 121 % of control | [7] 111 % of control | [5] 107 % of control | [8] 98 % of control | [6] 91 % of control | [9] 86 % of control

COc1cc2c(c(OC)c1O)-c1ccc(SC)c(=O)cc1C(NC(C)=O)CC2 (configuration not stated)
inactive: dose: 2.5 mg/kg/injection, schedule: Q01DX009 (ip), vehicle: water 119 % of control | dose: 5.0 mg/kg/injection, schedule: Q01DX009 (ip), vehicle: water 119 % of control | dose: 10.0 mg/kg/injection, schedule: Q01DX009 (ip), vehicle: water 116 % of control | dose: 20.0 mg/kg/injection, schedule: Q01DX009 (ip), vehicle: water 119 % of control | dose: 40.0 mg/kg/injection, schedule: Q01DX009 (ip), vehicle: water 122 % of control

CC1OC(=O)C(C(C)C)NC(=O)C(C(C)C)OC(=O)C(C(C)C)NC(=O)C(C)OC(=O)C(C(C)C)NC(=O)C(C(C)C)OC(=O)C(C(C)C)NC(=O)C(C)OC(=O)C(C(C)C)NC(=O)C(C(C)C)OC(=O)C(C(C)C)NC1=O (configuration not stated)
inactive: dose: 0.75 mg/kg/injection, schedule: Q01DX009 (oral), vehicle: Klucel (hydroxypropylcellulose) (HPC) 104 % of control | dose: 1.5 mg/kg/injection, schedule: Q01DX009 (oral), vehicle: Klucel (hydroxypropylcellulose) (HPC) 104 % of control | dose: 3.0 mg/kg/injection, schedule: Q01DX009 (oral), vehicle: Klucel (hydroxypropylcellulose) (HPC) 105 % of control | dose: 6.0 mg/kg/injection, schedule: Q01DX009 (oral), vehicle: Klucel (hydroxypropylcellulose) (HPC) 100 % of control | dose: 12.0 mg/kg/injection, schedule: Q01DX009 (oral), vehicle: Klucel (hydroxypropylcellulose) (HPC) 105 % of control | dose: 24.0 mg/kg/injection, schedule: Q01DX009 (oral), vehicle: Klucel (hydroxypropylcellulose) (HPC) 104 % of control

CSCCC(NC(=O)CNC(=O)OCc1ccccc1)C(=O)O (configuration not stated)
inactive: dose: 3.0 mg/kg/injection, schedule: Q01DX009 (ip), vehicle: Klucel (hydroxypropylcellulose) (HPC) 101 % of control and 103 % of control | dose: 6.0 mg/kg/injection, schedule: Q01DX009 (ip), vehicle: Klucel (hydroxypropylcellulose) (HPC) 95 % of control | [1] 93 % of control | dose: 12.0 mg/kg/injection, schedule: Q01DX009 (ip), vehicle: Klucel (hydroxypropylcellulose) (HPC) 101 % of control and 103 % of control | [2] 97 % of control | [3] 93 % of control and 94 % of control | [10] 95 % of control and 99 % of control and 102 % of control | [4] 95 % of control | [5] 101 % of control | [6] 95 % of control

CCC1=C(C)c2cc3[n-]c(cc4nc(cc5[n-]c(cc1n2)c(C)c5CCC(=O)OC)C(CCC(=O)OC)=C4C)c(C)c3CC.[Ni+2]
inactive: dose: 2.4 mg/kg/injection, schedule: Q01DX009 (ip), vehicle: saline with Tween-80 88 % of control | dose: 4.7 mg/kg/injection, schedule: Q01DX009 (ip), vehicle: saline with Tween-80 88 % of control | dose: 9.4 mg/kg/injection, schedule: Q01DX009 (ip), vehicle: saline with Tween-80 92 % of control

O=C(O)C1CC1.[Ag]
inactive: dose: 0.78 mg/kg/injection, schedule: Q01DX009 (ip), vehicle: water 99 % of control | dose: 1.56 mg/kg/injection, schedule: Q01DX009 (ip), vehicle: water 122 % of control | dose: 3.12 mg/kg/injection, schedule: Q01DX009 (ip), vehicle: water 100 % of control | dose: 6.25 mg/kg/injection, schedule: Q01DX009 (ip), vehicle: water 92 % of control
